Data taken from patent US8124051B2, “Complex drug delivery composition and method for treating cancer” (priority 2003, dated 2012).

Tests used:
[1] = tested on: human ovarian carcinoma cells; assay: Apoptosis and BCL-2 expression after DOX (cell death ELISA, RT-PCR); format: cell-based
From the text: (§1) It has been shown that prolonged exposure or high concentrations of anticancer drugs leads to the development of drug resistance (Minko, et al. (2001) Dis. Manag. Clin. Outcomes 3:48-54; Minko, et al. (1999) J. Controlled Rel. 59:133-148; Pakunlu (2003) Pharm. Res. 20:351-359; Minko, et al. (1999) Pharm. Res. 16:986-996; Minko, et al. (2001) J. Control. Rel. 71:227-237). To analyze antiapoptotic resistance, the degree of apoptosis to doxorubicin (DOX), a traditional, well-established anticancer drug, was determined. The enrichment of cell lysate and media by mono- and oligonucleosomes was measured using a cell death detection ELISA kit. The expression of genes was measured by reverse transcription PCR (RT-PCR) using β2-microglobulin (β2-m) as an internal standard. […] Similar results were obtained after repeated incubation of human ovarian carcinoma cells with low doses of DOX (Minko, et al. (1999) supra; Minko, et al. (1999) supra) and after treatment of mice xenografts of ovarian carcinoma cells with DOX. […] Thus, suppression of this antiapoptotic cellular defense mechanism is desirable.

[2] = tested on: xenografts of ovarian carcinoma cells; assay: DOX treatment of mice xenografts of ovarian carcinoma cells; format: in vivo; conditions: up to 25 days of treatment
From the text: as §1

[3] = healthy tissues and tumor; cited from earlier work
[4] = tested on: human ovarian carcinoma cells; assay: Cytotoxicity (IC50 dose) of Ant, Ant-BH3 peptide and DOX; format: cell-based; conditions: Ovarian carcinoma cell; human ovarian carcinoma cells
Protocol: By way of example, the effectiveness of a BH3 peptide ([…] SEQ ID NO:1) to increase cell death by inducing the mitochondrial dysfunction leading to necrosis was measured. BH3 peptide was delivered into human ovarian carcinoma cells by the Antennapedia (Ant) internalization sequence (Arg-Gln-Ile-lys-[…] SEQ ID NO:2). Mitochondrial function was assessed by flow cytometry analysis using the lipophilic cationic fluorescent probe 5,5′,6,6′-tetrachloro-1,1′,3,3′-tetraethylbenzimidazolcarbo-cyanine iodide (JC-1). This probe exists as a monomer, and upon excitation at 490 nm, emits light at 527 nm resulting in green fluorescence. At high mitochondrial transmembrane potential, JC-1 forms multimers, known as J-aggregates, and emits light at 590 nm upon excitation at 490 nm resulting in red fluorescence. Therefore, the red/green fluorescence ratio measured by flow cytometry reflects the number of functioning mitochondria. […] The effect of the Ant-BH3 peptide on mitochondrial transmembrane potential was also determined.
Cytotoxicity. The cytotoxicity of drugs were assessed using a modified MTT (3-(4,5-dimethylthiazol-2-yl)-2,5-diphenyltetrazolium bromide) assay (Kunath, et al. (2000) Eur. J. Pharm. Biopharm 49:11-15; Minko, et al. (1998) J. Controlled Rel. 54:223-233; Minko, et al. (1999) J. Controlled Rel. 59:133-148; Minko, et al. (2002) Cancer Chemother. Pharmacol. 50:143-150). […]

SMILES: COc1cccc2c1C(=O)c1c(O)c3c(c(O)c1C2=O)C[C@@](O)(C(=O)CO)C[C@@H]3O[C@H]1C[C@H](N)[C@H](O)[C@H](C)O1 [DOX, doxorubicin]
- cell response ([1]; cells that survived exposure to high DOX concentrations): overexpressed the BCL-2 gene and developed resistance to apoptosis
- cell response ([1]; low DOX concentrations): responded to the treatment by apoptosis
- tumor size [2]: decreased the tumor size
- tissue accumulation [3]: significant amount of free DOX accumulation in healthy tissues
- IC50 [4]: 484 ± 36.4 nM
